Assay results taken from paper PMC3914206.

How the values were obtained:
Format in all cases: binding
[1] = molecular target: T1, panel of 442 kinases (Homo sapiens, UniProt P35590); conditions: kinase TIE1; compound concentration 10 µM
T1 construct: purchased KINOMEscan
Text: (§1) We assessed the selectivity of members of this scaffold using the KINOMEscan methodology across a near comprehensive panel of 442 kinases [[18,27]].

[2] = molecular target: T2, panel of 442 kinases (Homo sapiens, UniProt Q15349); conditions: compound concentration 10 µM; for % Ctrl, RSK3(Kin.Dom.1-N-terminal): kinase RSK3(Kin.Dom.1-N-terminal); for % Ctrl, RSK3(Kin.Dom.2-C-terminal): kinase RSK3(Kin.Dom.2-C-terminal)
T2 construct: purchased KINOMEscan
Text: as §1

[3] = molecular target: T3, panel of 442 kinases (Homo sapiens, UniProt Q7KZI7); conditions: Compound Concentration 10 µM
T3 construct: purchased KINOMEscan
Text: as §1

[4] = molecular target: T4, panel of 442 kinases (Homo sapiens, UniProt Q9Y6M4); conditions: Compound Concentration 10 µM
T4 construct: purchased KINOMEscan
Text: as §1

T1 sequence (P35590 22-1138): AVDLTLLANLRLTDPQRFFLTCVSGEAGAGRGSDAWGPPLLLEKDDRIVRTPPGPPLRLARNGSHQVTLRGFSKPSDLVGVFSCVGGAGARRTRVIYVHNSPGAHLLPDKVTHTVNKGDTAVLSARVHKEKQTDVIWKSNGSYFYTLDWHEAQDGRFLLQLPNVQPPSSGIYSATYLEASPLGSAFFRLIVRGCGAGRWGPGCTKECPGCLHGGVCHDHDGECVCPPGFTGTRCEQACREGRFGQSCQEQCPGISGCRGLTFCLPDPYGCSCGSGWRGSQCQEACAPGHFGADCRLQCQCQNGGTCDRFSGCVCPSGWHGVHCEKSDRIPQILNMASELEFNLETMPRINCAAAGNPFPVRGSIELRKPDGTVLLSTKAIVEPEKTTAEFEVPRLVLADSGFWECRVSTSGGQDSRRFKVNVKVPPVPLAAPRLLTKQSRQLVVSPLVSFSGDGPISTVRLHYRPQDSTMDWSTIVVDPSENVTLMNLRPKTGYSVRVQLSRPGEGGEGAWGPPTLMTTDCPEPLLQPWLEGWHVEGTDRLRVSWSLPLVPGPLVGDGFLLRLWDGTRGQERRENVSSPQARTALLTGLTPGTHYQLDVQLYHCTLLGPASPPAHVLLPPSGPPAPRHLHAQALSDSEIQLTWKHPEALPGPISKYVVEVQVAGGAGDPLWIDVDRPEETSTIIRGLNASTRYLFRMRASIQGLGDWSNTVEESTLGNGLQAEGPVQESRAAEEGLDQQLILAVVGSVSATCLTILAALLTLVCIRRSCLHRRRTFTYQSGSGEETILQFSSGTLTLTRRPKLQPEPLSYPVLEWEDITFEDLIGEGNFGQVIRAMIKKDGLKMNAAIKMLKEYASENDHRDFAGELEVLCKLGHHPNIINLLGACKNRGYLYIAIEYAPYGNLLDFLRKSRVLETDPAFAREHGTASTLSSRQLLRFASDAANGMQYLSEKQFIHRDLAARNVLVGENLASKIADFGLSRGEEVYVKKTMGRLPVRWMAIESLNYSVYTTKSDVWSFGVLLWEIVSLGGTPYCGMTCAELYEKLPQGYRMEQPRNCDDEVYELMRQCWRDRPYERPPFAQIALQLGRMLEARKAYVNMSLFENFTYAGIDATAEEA
T2 sequence (Q15349 whole entry): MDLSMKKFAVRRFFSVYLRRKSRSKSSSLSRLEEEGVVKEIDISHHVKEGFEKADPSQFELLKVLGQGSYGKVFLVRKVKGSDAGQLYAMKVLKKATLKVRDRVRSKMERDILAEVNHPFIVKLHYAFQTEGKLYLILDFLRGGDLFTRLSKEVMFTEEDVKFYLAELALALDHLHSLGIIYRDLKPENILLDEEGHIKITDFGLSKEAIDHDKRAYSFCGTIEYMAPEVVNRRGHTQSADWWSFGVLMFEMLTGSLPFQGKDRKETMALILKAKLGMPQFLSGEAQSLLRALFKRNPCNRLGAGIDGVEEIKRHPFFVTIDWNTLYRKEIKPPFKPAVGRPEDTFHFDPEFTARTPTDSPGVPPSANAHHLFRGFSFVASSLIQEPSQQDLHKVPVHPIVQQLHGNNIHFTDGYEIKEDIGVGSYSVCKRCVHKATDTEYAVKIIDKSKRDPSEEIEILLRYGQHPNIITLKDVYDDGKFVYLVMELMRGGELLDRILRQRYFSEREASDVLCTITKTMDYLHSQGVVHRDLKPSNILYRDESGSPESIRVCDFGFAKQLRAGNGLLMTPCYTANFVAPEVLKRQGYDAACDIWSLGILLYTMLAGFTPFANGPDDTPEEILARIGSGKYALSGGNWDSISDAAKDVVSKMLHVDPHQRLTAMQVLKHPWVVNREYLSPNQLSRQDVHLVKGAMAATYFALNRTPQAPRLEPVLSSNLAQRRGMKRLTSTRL
T4 sequence (Q9Y6M4 whole entry): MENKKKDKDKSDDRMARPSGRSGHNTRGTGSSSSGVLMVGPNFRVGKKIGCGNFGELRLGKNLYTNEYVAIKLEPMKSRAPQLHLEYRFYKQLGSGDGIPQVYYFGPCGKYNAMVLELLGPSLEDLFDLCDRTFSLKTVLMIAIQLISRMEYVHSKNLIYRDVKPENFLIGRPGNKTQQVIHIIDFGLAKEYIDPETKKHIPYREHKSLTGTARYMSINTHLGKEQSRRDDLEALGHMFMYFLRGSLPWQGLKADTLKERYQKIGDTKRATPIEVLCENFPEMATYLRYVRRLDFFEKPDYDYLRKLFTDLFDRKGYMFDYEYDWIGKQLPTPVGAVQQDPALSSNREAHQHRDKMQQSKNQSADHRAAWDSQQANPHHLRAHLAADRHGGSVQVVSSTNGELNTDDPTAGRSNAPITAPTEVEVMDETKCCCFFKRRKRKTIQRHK
T3 sequence (Q7KZI7 whole entry): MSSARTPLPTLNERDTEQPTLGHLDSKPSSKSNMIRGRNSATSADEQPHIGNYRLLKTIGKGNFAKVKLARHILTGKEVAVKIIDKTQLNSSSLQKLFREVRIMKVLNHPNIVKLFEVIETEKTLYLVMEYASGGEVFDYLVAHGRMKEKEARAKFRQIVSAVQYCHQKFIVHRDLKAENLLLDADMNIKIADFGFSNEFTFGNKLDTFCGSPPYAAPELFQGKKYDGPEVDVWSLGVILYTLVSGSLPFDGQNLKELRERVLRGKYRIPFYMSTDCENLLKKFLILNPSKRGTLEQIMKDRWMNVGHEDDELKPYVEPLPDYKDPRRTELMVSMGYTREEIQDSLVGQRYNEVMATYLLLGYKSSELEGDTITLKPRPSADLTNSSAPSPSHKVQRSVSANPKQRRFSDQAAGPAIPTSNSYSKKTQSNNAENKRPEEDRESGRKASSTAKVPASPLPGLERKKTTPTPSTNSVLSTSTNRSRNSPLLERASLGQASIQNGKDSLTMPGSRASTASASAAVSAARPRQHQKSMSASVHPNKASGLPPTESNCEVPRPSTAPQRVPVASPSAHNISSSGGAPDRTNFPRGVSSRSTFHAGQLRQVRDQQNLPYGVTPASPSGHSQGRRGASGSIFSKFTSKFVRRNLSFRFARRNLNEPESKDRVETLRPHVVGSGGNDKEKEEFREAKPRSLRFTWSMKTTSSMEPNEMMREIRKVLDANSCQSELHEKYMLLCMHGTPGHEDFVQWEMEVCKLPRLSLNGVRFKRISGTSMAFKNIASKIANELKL

| SMILES | % Ctrl, TIE1 [1] [% Ctrl] | % Ctrl, RSK3(Kin.Dom.1-N-terminal) [2] [% Ctrl] | % Ctrl, RSK3(Kin.Dom.2-C-terminal) [2] [% Ctrl] | KINOMEscan: MARK2 [3] | KINOMEscan: CSNK1G3 [4] |
| --- | --- | --- | --- | --- | --- |
| COc1cc(C(=O)N2CCC(N3CCN(C)CC3)CC2)ccc1Nc1ncc2c(n1)N(C1CCCC1)c1ccccc1C(=O)N2C [Compound 25, 11-cyclopentyl-2-((2-methoxy-4-(4-(4-methylpiperazin-1-yl)piperidine-1-carbonyl)phenyl)amino)-5-methyl-5H-benzo[e]pyrimido[5,4-b][1,4]diazepin-6(11H)-one] | 100 | 100 | 78 | 98 | 96 |
| CCOc1cc(C(=O)N2CCC(N3CCN(C)CC3)CC2)ccc1Nc1ncc2c(n1)N(C1CCCC1)c1ccccc1C(=O)N2C [Compound 26] | 100 | 100 | 83 | 96 | 91 |
| COc1cc(C(=O)N2CCC(N3CCN(C)CC3)CC2)ccc1Nc1ncc2c(n1)N1CCc3cccc(c31)C(=O)N2C [Compound 24] | 70 | 100 | 13 |  |  |
| COc1cc(C(=O)N2CCC(N3CCN(C)CC3)CC2)ccc1Nc1ncc2c(n1)N(C)c1ccccc1C(=O)N2C [15 (LRRK2-IN-1)] | 100 | 83 | 7.5 | 100 | 93 |
